Here are results for 2 molecules from US11999758B2, “Inhibitors of the YAP/TAZ-TEAD interaction and their use in the treatment of cancer” (INVENTIVA, priority 2018, dated 2024).

For data set [1], the system named is NCI-H2052 mesothelioma cell. Description: Inhibition of malignant mesothelioma tumor cell growth (EdU proliferation). In kind it is cell-based. The note with it: NF2 mutated cell line; FIG. 1 (x). As for the experimental part:
(§1) The tumor cell growth inhibitory activity of the YAP-TEAD interaction inhibitors was evaluated in NCI-H-2052 mesothelioma cell line harboring a NF2 mutation. This cell line was selected based on its mutational status and the ability of a siRNA directed against YAP, TAZ or TEAD1-4 to inhibit cell proliferation. The nuclear localization of YAP at confluence was also taken into account. Based on these observations we were able to classify several “YAP dependent cells” where YAP is clearly nuclear and in which a cell growth inhibition is observed by using siRNA (NCI-H-2052, SKOV-3, ACHN, A549) and the “YAP independent cells” where YAP is preferentially located in the cytoplasm and in which no inhibition of cell growth is observed by using a siRNA (SW620, Met-5a). […] After one day growth in the starvation medium, cells were incubated with compounds. The starting concentration was 30 μM and serial dilutions in DMSO and medium were performed until 0.1 μM to achieve a final DMSO concentration of 0.5%. The cells were then allowed to grow for 3 days, and then, EdU (Invitrogen, Molecular Probe) was added in each well at a final concentration of 10 μM and the cells were returned to the incubator for an additional 24 h. The starvation medium was removed and 100 μl of PFA 4% containing Hoechst dye was adding in each well to fix the cells. Plates were then incubated at rt for 15 min, washed twice with PBS and the cells were permeabilized by adding 100 μl per well of triton-100 containing 0.3% BSA. After 20 min, cells were washed with PBS and EdU detection was performed according to the instructions of the manufacturer. Image acquisition was performed using the ImageXpress Micro and analyzed using the MetaXpress software (Molecular Device). Results were expressed as a percent of inhibition (%) of the cell proliferation values obtained with 0.5% DMSO treatment alone. The cellular response was determined by fitting the concentration response curves using a 3 parameter curve fit equation and determining the concentration that inhibited cell growth between 50% and 100%.

For the next data set, the system named is Met5A cell line. As to the kind of experiment: Cell proliferation in YAP-independent cell line (EdU). In kind it is cell-based. The note with it: FIG. 1 (▪). As for the experimental part: as §1
The target in a further data set is T1, YAP-TEAD interaction (Homo sapiens, UniProt P28347).
T1 construct: expressed in transfected cells; host or cells: HEK293 GripTite 293 MSR (Invitrogen R795-07)
Description: Cell-based TEAD-GAL4 transactivation assay (luciferase reporter). The conditions noted are these: HEK293 cells transfected with TEAD1-Gal4, YAP mutant (S127A, S397A) and luciferase reporter, compounds 0.1 μM to 30 μM; for Emax: HEK293, 24 h, read-out: TEAD-GAL4 Transactivation activity Max Act; for IC50: 24 h. Summed up:
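HEK293 cells transiently transfected with Gal4-DBD–full-length human TEAD1, full-length YAP S127A/S397A (YAP/TEAD ratio 10) and a 5×GAL4-RE TK-luciferase reporter. Six hours later, compounds added semi-log from 0.1 to 30 μM (DMSO 0.5% control) for 24 h. Luciferase read; IC50 from 3-parameter fit.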
On the technique in general: In a reporter assay the amount or activity of a reporter protein is the signal.

T1 sequence (P28347 whole entry): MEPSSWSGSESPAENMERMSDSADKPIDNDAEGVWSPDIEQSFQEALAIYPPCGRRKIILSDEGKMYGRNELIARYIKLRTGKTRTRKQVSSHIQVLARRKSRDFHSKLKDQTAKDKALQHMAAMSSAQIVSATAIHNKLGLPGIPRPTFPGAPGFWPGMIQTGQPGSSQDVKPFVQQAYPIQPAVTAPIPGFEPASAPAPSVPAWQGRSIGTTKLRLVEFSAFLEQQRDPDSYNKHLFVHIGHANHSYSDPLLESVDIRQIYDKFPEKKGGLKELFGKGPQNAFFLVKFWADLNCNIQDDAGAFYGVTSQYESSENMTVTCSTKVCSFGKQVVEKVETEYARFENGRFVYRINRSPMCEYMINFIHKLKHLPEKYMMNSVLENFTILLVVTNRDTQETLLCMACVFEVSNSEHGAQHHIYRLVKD

In general, IC50 refers to the concentration that gives 50% inhibition. Read a low IC50 as greater potency in that assay. As usually defined, the melting point is the temperature, or range, at which the solid turns liquid. For `CSc1nc2ncnc(N(C)/N=C/c3ccc4c(c3)COB4O)c2s1` [Ex75, N-[(E)-(1-hydroxy-3H-2,1-benzoxaborol-5-yl)methyleneamino]-N-methyl-2-methylsulfanyl-thiazolo[4,5-d]pyrimidin-7-amine], the melting point lay in the range of 262 to 286 °C. Moreover, the “NCI-H2052 mesothelioma cell proliferation” value in data set [1] is “inhibited”. The “effect in the Met5A cell line” value in the data set on Met5A cell line was “without showing any effect”. Moreover, on YAP-TEAD interaction, the Emax worked out at 94% and the IC50 is 900 nM.

With `CCN(/N=C/c1ccc2c(c1)COB2O)c1ncnc2c(C)csc12` [Ex 42, N-ethyl-N-[(E)-(1-hydroxy-3H-2,1-benzoxaborol-5-yl)methyleneamino]-7-methyl-thieno[3,2-d]pyrimidin-4-amine], the “NCI-H2052 mesothelioma cell proliferation” value in data set [1] is “inhibited”. Further, the “effect in the Met5A cell line” value with Met5A cell line was “without showing any effect”. Moreover, on YAP-TEAD interaction, the Emax amounted to 81% and the IC50 worked out at 260 nM.
